{"source": "patent US20160008627A1", "about": "“METHODS AND DEVICES FOR VISIBLE LIGHT MODULATION OF MITOCHONDRIAL FUNCTION IN HYPOXIA AND DISEASE” (Clarimedix Inc., priority 2008, published 2016)", "key": {"[1]": {"system": "yeast cells", "conditions": "1 mM nitrite, light 3 doses of 6.4 J/cm^2", "description": "The effects of broad spectrum light on the expression of the nuclear COX genes for Cco and the overall level of cellular respiration were examined. Because cytochrome c oxidase is a major regulator of respiration and because the nuclear genes (COX) for cytochrome c oxidase are highly regulated by a variety of environmental factors and function to regulate the overall activity of Cco, their level of expression provides a useful measure for the long-term effects of light on Cco. Similarly, the rate of respiration per se provides a direct measure of the effects of light on the entire respiratory chain.\nYeast cells were grown in liquid media for three hours, which is equivalent to the time it takes for one cell division. […]\nLight from a Broadband 50 watt Xenon/Halogen Floodlight was administered at the beginning of each hour for a total of 3 doses, each at 6.4 J/cm^2 (105 mW/cm^2). After 3 hours, cells were harvested and analyzed for measurement of gene expression (by quantitiative PCR), or respiration (by polarographic oxygen consumption). qPCR was performed with primers designed for COX of Cco subunits COX4, COX5a, COX5b, COX6, and COX8. Each sample was run in duplicate and gene expression was quantified by normalizing to PMAI, a yeast gene that is expressed at constant levels, irrespective of the environment in which cells are grown."}, "[2]": {"system": "NT2 cells", "test": "Oxidative stress induced APP processing in NT2 cells", "assay_type": "cell-based", "conditions": "for APP processing as assessed by Aβ1-42 production: FIG. 17", "text": "Broadband light reverses oxidative stress induced APP processing to Aβ1-42. […] Broad band light (7.5 Joules total dose) reversed the oxidative stress affects back to control levels (FIG. 17).\nBroadband light reverses oxidative stress induced APP processing to Aβ1-40. […] Broad band light (7.5 Joules total dose) reversed the oxidative stress affects back to control levels (FIG. 18)."}, "[3]": {"molecular_target": "T1, mitochondrial Cco (Mus musculus, UniProt P00397)", "T1 construct": "These experiments used mitochondria isolated from the cerebrum of 7-12 day old mice; from tissue; host or cells: mitochondria from mouse cerebrum (7-12 day old mice)", "test": "Cco/NO activity (nitrite-dependent NO synthesis) in cerebrum mitochondria, NO electrode", "assay_type": "biochemical", "conditions": "hypoxic conditions, ascorbate/TMPD as electron donor pair, cerebrum mitochondria of 7-12 day old mice", "text": "We have studied Cco/NO activity in both human endothelial cells and mouse brain nervous tissue. All of the assays for Cco/NO activity were done in a closed chamber, as described elsewhere (Castello et al. 2006, Cell Metabolism 3, 277-287). Cells or mitochondria were allowed to respire and consume oxygen all of the oxygen in the chamber before the addition of nitrite, which initiated the reaction.\nResults with mouse nerve cells. These experiments used mitochondria isolated from the cerebrum of 7-12 day old mice. Using the same assay we used for endothelial cell mitochondria, we assayed Cco/NO activity under hypoxic conditions with ascorbate/TMPD as an electron donor pair. […] To confirm that we had measured NO synthesis we added PTIO, an NO scavenger."}}, "note": "Where two headings read alike, the source gives them in different places.", "data": [{"smiles": "O=NO", "note": "[+Nitrite, nitrite]", "values": [{"measurement": "Oxygen Consumption", "setting": "[1]; Hypoxia (1% O2)", "value": "14.27 ± 0.26", "unit": "nmol/min/mg cells"}, {"measurement": "Oxygen Consumption", "setting": "[1]; Normoxia", "value": "15.21 ± 0.47", "unit": "nmol/min/mg cells"}]}, {"smiles": "CCCCCC(O)/C=C/C=O", "note": "(stereo not drawn) [FINE]", "values": [{"measurement": "APP processing as assessed by Aβ1-42 production", "setting": "[2]", "value": "dramatic increases"}, {"measurement": "APP processing as assessed by Aβ1-40 production", "setting": "[2]; FIG. 18", "value": "dramatic increases"}]}, {"smiles": "OO", "note": "[H2O2]", "values": [{"measurement": "APP processing as assessed by Aβ1-42 production", "setting": "[2]", "value": "dramatic increases"}]}, {"smiles": "CC1(C)N([O])C(c2ccccc2)=[N+]([O-])C1(C)C", "note": "[PTIO]", "values": [{"measurement": "Removal of the NO produced by mitochondrial Cco (NO scavenger)", "setting": "[3]", "value": "completely removes the NO produced"}]}]}
